Values of other authors, collected in patent US20100166698A1, “NEW COMPOSITIONS AND METHODS FOR THE TREATMENT OF INFLAMMATION” (University of Virginia Patent Foundation, priority 2005, published 2010).

Columns and labels:
[1] = system: TNF-α-stimulated PMN adhering to matrix proteins; conditions: DeLa Harpe, J. Immunol. 143, 596 (1989)
TNF-a-stimulated PMN = conditions: adenosine 10 μM

In the case of `Nc1ncnc2c1ncn2[C@@H]1O[C@H](CO)[C@@H](O)[C@H]1O` [adenosine], the “oxidative burst of TNF-α-stimulated PMN adhering to matrix proteins” value [1] is listed as “dramatically decreases” and the “effect on TNF-a-stimulated PMN adherence to matrix proteins” value (TNF-a-stimulated PMN) is listed as “failed to see much of an effect”.
